This note sets out measurements from ChEMBL document CHEMBL1250456, “Synthesis and binding ability of 1,2,3-triazole-based triterpenoid receptors for recognition of Hg(2+) ion” (Bioorg Med Chem Lett, 2010).

The nature of assay [1]: Binding affinity to mercury ion by Hildebrand-Benesi equation analysis.
Assay [2] is described as follows: Binding affinity to zinc ion by UV-vis titration analysis.
The nature of assay [3]: Binding affinity to copper ion by Hildebrand-Benesi equation analysis.
Assay [4] can be described thus: Binding affinity to cadmium ion by UV-vis titration analysis.
The nature of assay [5]: Binding affinity to magnesium ion by UV-vis titration analysis.

SMILES strings stand for the structures. Calls of active or inactive are those of the source. No cut-off for these calls is given here.

For the molecule `COC(=O)[C@@]1(C)CC[C@]2(C)CC[C@]3(C)C(=CC(=O)[C@@H]4[C@@]5(C)C[C@H](OC(=O)Cn6cc(COc7ccc8ccccc8c7C=O)nn6)[C@@H](OC(=O)Cn6cc(COc7ccc8ccccc8c7C=O)nn6)C(C)(C)[C@@H]5CC[C@]43C)[C@@H]2C1`, the Ka amounted to 2.7 ×10⁴ /M in assay [1] and 5 ×10³ /M in assay [3]. Also, the outcome in assay [2], in assay [4] and in assay [5] was inactive.

In the case of `COC(=O)[C@@]1(C)CC[C@]2(C)CC[C@]3(C)C(=CC(=O)[C@@H]4[C@@]5(C)C[C@H](OC(=O)Cn6cc(COc7ccccc7C=O)nn6)[C@@H](OC(=O)Cn6cc(COc7ccccc7C=O)nn6)C(C)(C)[C@@H]5CC[C@]43C)[C@@H]2C1`, the Ka was found to be 3 ×10⁴ /M in assay [1] and 1.6 ×10³ /M in assay [3]. Moreover, the result in assay [2], in assay [4] and in assay [5] was inactive.
